The values that follow come from publication PMC4388847, “Machine Learning Assisted Design of Highly Active Peptides for Drug Discovery” (PLoS Computational Biology, 2015).

Data set [1] has as its system bradykinin potentiation. The note with it: BPPs training set value; cited from earlier work. An excerpt:
On the BPPs dataset, the proposed approach predicted that the pentapeptide IEWAK should have an activity of 2.195, slightly less than the best peptide of the training set (VEWAK, 2.73, predicted as 2.192). However, the predicted activity of IEWAK is much better than the average peptide activity of the dataset, which is 0.71. One may ask why IEWAK has a lower predicted biological activity than VEWAK, which was part of the training data. It is common for machine learning algorithms to sacrifice accuracy on the training data to prevent overfitting. Despite this small discrepancy, the model is ver ...

Data set [2] has as its system Escherichia coli K12 MG1655. It counts as cell-based. Here is the method: (§1) To further validate the approach, a number of antimicrobial peptides identified during the in silico validation were synthesized. Their antimicrobial activity against Escherichia coli and Staphylococcus aureus were measured in a growth inhibitory assay. Details on the synthesis and assay are given in the supplementary material (see S1 Text). The peptides were obtained using h CAMP, the same predictor used during the previous validation. […]
(§2) Escherichia coli K12 MG1655 and Staphylococcus aureus 68 (HER1049) were obtained from the F´elix d’H´erelle Reference Center for Bacterial Viruses of Universit´e Laval (http://www.phage.ulaval.ca). Both strains were grown in Trypticase soy broth with agitation at 37◦C. The minimal inhibitory concentration assay was performed as described in [2] and broth microdilution protocol performed in 96-well plates.
(§3) The bacterial strains were grown overnight at 37◦C with aeration and diluted to a ﬁnal concentration of 5× 10^5 cfu/ml in the assay. The peptides were diluted in sterile water and were tested at the following concentrations: 0, 1, 2, 4, 8, 16 and 32µg/ml. The optical density (600nm) was followed every 30 minutes for 24 hours with a Synergy 2 plate reader (BioTek Instruments, Inc.). […]
(§4) 2.Wiegand I, Hilpert K, Hancock RE (2008) Agar and broth dilution methods to determine the minimal inhibitory concentration (mic) of antimicrobial substances. Nature protocols 3: 163–175.

Data set [3] relates to Staphylococcus aureus 68 (HER1049). The data set is classed as cell-based. Here is the method: as §1, §2, §3, §4
The conditions of data set [4]: stated in words as the cause of the weak activity.
From the text: We used the proposed approach with the predictor h CAMP to generate a list of K = 1,000 peptide candidates with the highest predicted activity. From this list, we greedily selected three peptides such that they all differed by at least 4 amino acids from each others. This was done to maximize the chemical diversity among them. We then tested these peptides (Peptides #2, #3, #4) in a growth inhibitory assay. […] In a second series, we ensured that a filter for water solubility was employed.
Data set [5] has as its system 24 bacteria such as Escherichia coli, Bacteroïdes fragilis, and Staphylococcus aureus. The note with it: average potency over 24 bacteria; CAMPs training set value; cited from earlier work. An excerpt:
We observe a smooth power law with only a few peptides having outstanding biological activity, as expected.

Setting [6] is: E. coli K12 MG1655, broth microdilution in 96-well plates, 5×10^5 cfu/ml, peptides in sterile water tested at 0, 1, 2, 4, 8, 16 and 32 µg/ml, OD 600 nm every 30 minutes for 24 hours, 37 °C.
The mark [7] stands for this setting: S. aureus 68 (HER1049), broth microdilution in 96-well plates, 5×10^5 cfu/ml, peptides in sterile water tested at 0, 1, 2, 4, 8, 16 and 32 µg/ml, OD 600 nm every 30 minutes for 24 hours, 37 °C.

Read-outs that look alike come from different tables or passages of the source. Peptide text beside a SMILES is read from it.

For VEWAK, the “bioactivity (logarithm of the relative activity index compared to the peptide VESSK)” value in data set [1] was 2.73.

Take `CC[C@H](C)[C@H](NC(=O)CNC(=O)[C@H](CC(C)C)NC(=O)[C@H](Cc1ccccc1)NC(=O)[C@H](CC(C)C)NC(=O)[C@H](CCCCN)NC(=O)[C@H](Cc1c[nH]c2ccccc12)NC(=O)[C@@H](N)CCCCN)C(=O)N[C@@H](CC(C)C)C(=O)N[C@@H](C)C(=O)N[C@H](C(=O)N[C@@H](CC(C)C)C(=O)N[C@@H](CCCCN)C(=O)N[C@H](C(=O)N[C@@H](CC(C)C)C(N)=O)C(C)C)C(C)C` [Peptide 7, reference compound] (H-KWKLFLGILAVLKVL-NH2; N-terminus assumed): in data set [2] (setting [6]), the “MIC (μg/ml) >E. coli” value was above 32 µg/mL. Also, the “MIC (μg/ml) S. aureus” value in data set [3] (setting [7]) is above 32 µg/mL.

On to `CC[C@H](C)[C@H](NC(=O)[C@H](CCCNC(=N)N)NC(=O)[C@H](CCCNC(=N)N)NC(=O)[C@H](CC(C)C)NC(=O)[C@H](CCCCN)NC(=O)[C@H](CCCCN)NC(=O)[C@H](Cc1c[nH]c2ccccc12)NC(=O)[C@H](CCCNC(=N)N)NC(=O)[C@H](CCCCN)NC(=O)[C@H](Cc1c[nH]c2ccccc12)NC(=O)[C@@H](N)Cc1c[nH]c2ccccc12)C(=O)N[C@@H](Cc1ccccc1)C(=O)N[C@@H](CC(C)C)C(=O)N[C@@H](CCSC)C(=O)N[C@@H](CC(C)C)C(N)=O` [Peptide 2] (H-WWKRWKKLRRIFLML-NH2; N-terminus assumed), for which, in data set [2] (K12, 24 h), the “MIC (μg/ml) >E. coli” value is 4 µg/mL. Also, the “MIC (μg/ml) S. aureus” value in data set [3] (68 (HER1049, 24 h)) was 4 µg/mL.

In the case of `CC[C@H](C)[C@H](NC(=O)[C@H](CCCNC(=N)N)NC(=O)[C@H](CCCNC(=N)N)NC(=O)[C@H](CC(C)C)NC(=O)[C@H](CCCCN)NC(=O)[C@H](CCCCN)NC(=O)[C@H](Cc1c[nH]c2ccccc12)NC(=O)[C@H](CCCCN)NC(=O)[C@H](CCCCN)NC(=O)[C@H](Cc1c[nH]c2ccccc12)NC(=O)[C@@H](N)Cc1ccc(O)cc1)C(=O)N[C@@H](Cc1ccccc1)C(=O)N[C@@H](CCSC)C(=O)N[C@@H](CC(C)C)C(=O)N[C@H](C(N)=O)C(C)C` [Peptide 1] (H-YWKKWKKLRRIFMLV-NH2; N-terminus assumed), the “MIC (μg/ml) >E. coli” value in data set [2] (K12, 24 h) came to 2 µg/mL. In addition, the “MIC (μg/ml) S. aureus” value in data set [3] (68 (HER1049, 24 h)) is 8 µg/mL.

On to `CC(C)C[C@H](NC(=O)[C@H](CCCNC(=N)N)NC(=O)[C@H](CCCCN)NC(=O)[C@H](Cc1c[nH]c2ccccc12)NC(=O)[C@H](Cc1c[nH]c2ccccc12)NC(=O)[C@H](CCCCN)NC(=O)[C@H](Cc1c[nH]c2ccccc12)NC(=O)[C@@H](N)Cc1c[nH]c2ccccc12)C(=O)N[C@@H](CCCNC(=N)N)C(=O)N[C@@H](CCCNC(=N)N)C(=O)N[C@@H](CC(C)C)C(=O)N[C@@H](Cc1ccccc1)C(=O)N[C@@H](CC(C)C)C(=O)N[C@@H](CC(C)C)C(=O)N[C@H](C(N)=O)C(C)C` [Peptide 4] (H-WWKWWKRLRRLFLLV-NH2; N-terminus assumed), for which the “MIC (μg/ml) >E. coli” value in data set [2] (K12, 24 h) stood at 16 µg/mL. The “MIC (μg/ml) S. aureus” value in data set [3] (68 (HER1049, 24 h)) is 16 µg/mL. Besides, the water solubility result in data set [4] was “poor”.

On to `CC[C@H](C)[C@H](NC(=O)[C@H](CCCNC(=N)N)NC(=O)[C@H](CCCCN)NC(=O)[C@H](Cc1c[nH]c2ccccc12)NC(=O)[C@H](CCCNC(=N)N)NC(=O)[C@H](CCCCN)NC(=O)[C@H](Cc1c[nH]c2ccccc12)NC(=O)[C@@H](N)Cc1c[nH]c2ccccc12)C(=O)N[C@@H](CCCNC(=N)N)C(=O)N[C@@H](CCCNC(=N)N)C(=O)N[C@H](C(=O)N[C@@H](Cc1ccccc1)C(=O)N[C@@H](CCSC)C(=O)N[C@@H](CCSC)C(=O)N[C@H](C(N)=O)C(C)C)[C@@H](C)CC` [Peptide 3] (H-WWKRWKRIRRIFMMV-NH2; N-terminus assumed), for which the “MIC (μg/ml) >E. coli” value in data set [2] (K12, 24 h) worked out at 4 µg/mL. For the same compound, the “MIC (μg/ml) S. aureus” value in data set [3] (68 (HER1049, 24 h)) was 8 µg/mL.

As to `CC[C@H](C)[C@H](NC(=O)[C@H](CC(C)C)NC(=O)[C@H](CCCNC(=N)N)NC(=O)[C@H](Cc1c[nH]c2ccccc12)NC(=O)CN)C(=O)N[C@@H](CCCCN)C(=O)N[C@@H](CCCCN)C(=O)N[C@H](C(=O)N[C@@H](CC(C)C)C(=O)N[C@@H](CCCNC(=N)N)C(=O)N[C@H](C(=O)N[C@@H](Cc1ccccc1)C(=O)N[C@@H](CCCCN)C(=O)NCC(=O)N[C@@H](CC(C)C)C(N)=O)C(C)C)[C@@H](C)CC` [Peptide 6, reference compound] (H-GWRLIKKILRVFKGL-NH2; N-terminus assumed), in data set [2] (setting [6]), the “MIC (μg/ml) >E. coli” value stood at 4 µg/mL. Besides, the “MIC (μg/ml) S. aureus” value in data set [3] (setting [7]) stood at 4 µg/mL. Besides, in data set [5], the “antibacterial activity (logarithm of bactericidal potency)” value was 0.824.

Take `CC[C@H](C)[C@H](NC(=O)CNC(=O)[C@H](CCCCN)NC(=O)[C@H](Cc1ccccc1)NC(=O)[C@H](CC(C)C)NC(=O)[C@H](CCCCN)NC(=O)[C@H](Cc1c[nH]c2ccccc12)NC(=O)[C@@H](N)CCCCN)C(=O)N[C@@H](CCCNC(=N)N)C(=O)N[C@@H](C)C(=O)N[C@H](C(=O)N[C@@H](CC(C)C)C(=O)N[C@@H](CCCCN)C(=O)N[C@H](C(=O)N[C@@H](CC(C)C)C(N)=O)C(C)C)C(C)C` [Peptide 5, reference compound] (H-KWKLFKGIRAVLKVL-NH2; N-terminus assumed): the “MIC (μg/ml) >E. coli” value in data set [2] (setting [6]) turned out to be 4 µg/mL. Further, the “MIC (μg/ml) S. aureus” value in data set [3] (setting [7]) turned out to be 8 µg/mL.
